# Reference: patent US8937077B2, “Bicyclic diamines as janus kinase inhibitors” (Merck Sharp & Dohme Corp., priority 2010, dated 2015)
# Like-named read-outs stand apart in the source and are kept apart here.
# Molecular target: T1, Jak1 (Homo sapiens, UniProt P23458)
# T1 construct: using a recombinant purified GST-tagged catalytic domain for each enzyme; GST; purchased Invitrogen M4290
# Assay: Jak Biochemical HTRF Assay (Jak1)
# Conditions: recombinant GST-tagged catalytic domain
# Excerpt: Compounds of formula I can be prepared according to the general procedures described in the Schemes and Examples herein, using appropriate materials. Representative compounds of the present invention are exemplified herein below. The compounds exemplified are not, however, to be construed as limiting the scope of the invention in any manner. The examples further illustrate details for the preparation of the compounds of the present invention. Those skilled in the art will readily understand that known variations of protecting groups, of reagents, as well as of the conditions and processes of the following preparative procedures, can be used to prepare these compounds. It is also understood that whenever a chemical reagent is not commercially available, such a chemical reagent can be readily prepared by those skilled in the art by either following or adapting known methods described in the literature or described herein. Chiral analogs were prepared via incorporation of chiral reagents or obtained after chiral chromatography separation of a racemically generated analog. All temperatures are degrees Celsius unless otherwise noted. Mass spectra (MS) were measured either by electrospray ion-mass spectroscopy (ESMS) or by atmospheric pressure chemical ionization mass spectroscopy (APCI). Jak1 data were obtained using the in vitro assay described below.
# Jak Biochemical HTRF Assay Protocol
# The ability of compounds to inhibit the activity of Jak1, Jak2, Jak3, and Tyk2 was measured using a recombinant purified GST-tagged catalytic domain for each enzyme (Invitrogen Jak1 #M4290, […]) in an HTRF format biochemical assay. The reactions employed a common peptide substrate, LCB-EQEDEPEGDYFEWLW-NH2 (in-house). The basic assay protocol is as follows: First, […] of diluted compounds in DMSO were dispensed into the wells of a dry 384-well Black plate (Greiner #781076) using a Labcyte Echo 555 acoustic dispenser. Subsequent reagent additions employed an Agilent Bravo. Next, 18 μL, of 1.11X enzyme and 1.11X substrate in 1X assay buffer (Invitrogen kinase buffer #PV3189, 2 mM DTT, 0.05% BSA) were added to the wells and shaken and then preincubated for 30 minutes at room temperature to allow compound binding to equilibrate. After equilibration, 2 μL of 10X ATP in 1X assay buffer was added to initiate the kinase reaction and the plates were shaken and then incubated at room temperature for 120 minutes. At the end of the incubation, 20 μL of 2X stop buffer (streptavidin-Dylight (Thermo #21845), Eu-tagged pY20 antibody (Perkin Elmer #AD0067), EDTA, HEPES, and Triton) was added to quench the reaction. Plates were shaken and centrifuged and then incubated 60 minutes at room temperature and then read on a Perkin Elmer Envision (λex=337 nm, λem=665 and 615 nm, TRF delay time=20 μs). HTRF signal=10,000*665 nm reading/615 nm reading. After normalization to untreated controls, the percent inhibition of the HTRF signal at each compound concentration was calculated. The plot of percent inhibition versus the log of compound concentration was fit with a 4-parameter dose response equation to calculate IC50 values.
# [1] = IC50 class, read-out: Jak1 activity
# [2] = 31.8 μM ATP, read-out: Representative IC50 values
# T1 sequence (P23458 875-1153 limits assumed): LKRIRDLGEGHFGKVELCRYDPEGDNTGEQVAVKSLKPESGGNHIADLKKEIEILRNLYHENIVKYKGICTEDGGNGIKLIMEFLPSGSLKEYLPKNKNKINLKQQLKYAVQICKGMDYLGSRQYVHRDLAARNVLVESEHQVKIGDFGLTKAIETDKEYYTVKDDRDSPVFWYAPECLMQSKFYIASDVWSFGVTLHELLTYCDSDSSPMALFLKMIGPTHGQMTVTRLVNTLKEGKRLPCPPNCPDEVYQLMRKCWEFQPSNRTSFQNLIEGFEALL
SMILES,IC50 [1],IC50 [2]
"O=C(OCc1ccc(F)cc1)N1CCCC2C1CCN2c1ncnc2[nH]ccc12 (stereo not drawn) [Example 3-2, 4-fluorobenzyl 1-(7H-pyrrolo[2,3-d]pyrimidin-4-yl)octahydro-4H-pyrrolo[3,2-b]-pyridine-4-carboxylate]",10 to 100 nM,–
"Cc1cccc(COC(=O)N2CCCC3C2CCN3c2ncnc3[nH]ccc23)c1 (stereo not drawn) [Example 3-16, 3-methylbenzyl 1-(7H-pyrrolo[2,3-d]pyrimidin-4-yl)octahydro-4H-pyrrolo[3,2-b]-pyridine-4-carboxylate]",10 to 100 nM,–
"COC(=O)c1ccc(CCC(=O)N2CCC[C@@H]3[C@H]2CCN3c2ncnc3[nH]ccc23)cc1 [Example 26, methyl 4-{3-oxo-3-[(3aR,7aR)-1-(7H-pyrrolo[2,3-d]pyrimidin-4-yl)octahydro-4H-pyrrolo[3,2-b]pyridine-4-yl]propyl}benzoate]",10 to 100 nM,–
"CC1CCN(C(=O)CC#N)C2CCN(c3ncnc4[nH]ccc34)C12 [Example 22, (3aS,7S,7aS and 3aR,7R,7aR) 3-[7-methyl-1-(7H-pyrrolo[2,3-d]pyrimidin-4-yl)octahydro-4H-pyrrolo[3,2-b]pyridin-4-yl]-3-oxopropanenitrile]",100 to 1000 nM,–
"O=C(OCc1cccc(F)c1)N1CCCC2C1CCN2c1ncnc2[nH]ccc12 (stereo not drawn) [Example 3-9, 3-fluorobenzyl 1-(7H-pyrrolo[2,3-d]pyrimidin-4-yl)octahydro-4H-pyrrolo[3,2-b]-pyridine-4-carboxylate]",10 to 100 nM,–
"CN(C)C(=O)c1ccc(COC(=O)N2CCC[C@@H]3[C@H]2CCN3c2ncnc3[nH]ccc23)cc1 [Example 7-1, 4-(dimethylcarbamoyl)benzyl (3aR,7aR)-1-(7H-pyrrolo[2,3-d]pyrimidin-4-yl)octahydro-4H-pyrrolo[3,2-b]pyrindine-4-carboxylate]",100 to 1000 nM,–
"O=C(OCc1cccnc1)N1CCCC2C1CCN2c1ncnc2[nH]ccc12 [Example 3-1, (3aS,7aS and 3aR,7aR) pyridin-3-ylmethyl 1-(7H-pyrrolo[2,3-d]pyrimidin-4-yl)octahydro-4H-pyrrolo[3,2-b]pyridine-4-carboxylate]",10 to 100 nM,–
"COC(=O)c1ccc(CCCN2CCC[C@@H]3[C@H]2CCN3c2ncnc3[nH]ccc23)cc1 [Example 13, methyl 4-{3-[(3aR,7aR)-1-(7H-pyrrolo[2,3-d]pyrimidin-4-yl)octahydro-4H-pyrrolo[3,2-b]pyridin-4-yl]propyl}benzoate]",100 to 1000 nM,169 nM
"Cc1cc2c(N3CCC4C3CCCN4C(=O)OCc3ccccc3)ncnc2[nH]1 [Example 15, (3aS,7aS and 3aR,7aR) benzyl 1-(6-methyl-7H-pyrrolo[2,3-d]pyrimidin-4-yl)octahydro-4H-pyrrolo[3,2-b]pyridine-4-carboxylate]",10 to 100 nM,–
"O=C(OCc1ccccc1)N1CCC2C1CCCN2c1ncnc2[nH]ccc12 [Example 16, (3aS,7aS and 3aR,7aR) benzyl 4-(7H-pyrrolo[2,3-d]pyrimidin-4-yl)octahydro-1H-pyrrolo[3,2-b]pyridine-1-carboxylate]",10 to 100 nM,31 nM
"O=C(OCCCc1cccnc1)N1CCCC2C1CCN2c1ncnc2[nH]ccc12 (stereo not drawn) [Example 3-5, 3-pyridin-3-ylpropyl 1-(7H-pyrrolo[2,3-d]pyrimidin-4-yl)octahydro-4H-pyrrolo[3,2-b]-pyridine-4-carboxylate]",10 to 100 nM,–
"COC(=O)c1ccc(COC(=O)N2CCCC3C2CCN3c2ncnc3[nH]ccc23)cc1 (stereo not drawn) [Example 3-25, 4-(methoxycarbonyl)benzyl 1-(7H-pyrrolo[2,3-d]pyrimidin-4-yl)octahydro-4H-pyrrolo[3,2-b]pyridine-4-carboxylate]",1 to 10 nM,–
"O=C(OCCF)N1CCC[C@@H]2[C@H]1CCN2c1ncnc2[nH]ccc12 (single isomer, unassigned) [Example 3-30]",10 to 100 nM,–
"CN1CCC(COC(=O)N2CCC[C@@H]3[C@H]2CCN3c2ncnc3[nH]ccc23)CC1 [Example 3-42, (1-methylpiperidin-4-yl)methyl (3 aR,7 aR)-1-(7H-pyrrolo[2,3-d]pyrimidin-4-yl)octahydro-4H-pyrrolo[3,2-b]pyridine-4-carboxylate]",100 to 1000 nM,–
"O=C(OCCCc1ccccc1)N1CCC[C@@H]2[C@H]1CCN2c1ncnc2[nH]ccc12 [Example 3-47, 3-phenylpropyl (3aR,7aR)-1-(7H-pyrrolo[2,3-d]pyrimidin-4-yl)octahydro-4H-pyrrolo[3,2-b]pyridine-4-carboxylate]",1 to 10 nM,–

# Further lines, results first:
IC50 [1],IC50 [2],SMILES
100 to 1000 nM,–,"O=C(c1cn2ccc(Cl)cc2n1)N1CCC[C@@H]2[C@H]1CCN2c1ncnc2[nH]ccc12 [Example 29-60, 4-{(3aR,7aR)-4-[(7-chloroimidazo[1,2-a]pyridin-2-yl)carbonyl]octahydro-1H-pyrrolo[3,2-b]pyridin-1-yl}-7H-pyrrolo[2,3-d]pyrimidine]"
10 to 100 nM,–,"O=C(c1cnc2ccccc2c1)N1CCC[C@@H]2[C@H]1CCN2c1ncnc2[nH]ccc12 [Example 29-44, 3-{[(3aR,7aR)-1-(7H-pyrrolo[2,3-d]pyrimidin-4-yl)octahydro-4H-pyrrolo[3,2-b]pyridin-4-yl]carbonyl}quinoline]"
10 to 100 nM,–,"CN(C)C(=O)N1CCC(C(=O)N2CCC[C@@H]3[C@H]2CCN3c2ncnc3[nH]ccc23)CC1 [Example 29-35, N,N-dimethyl-4-{[(3aR,7aR)-1-(7H-pyrrolo[2,3-d]pyrimidin-4-yl)octahydro-4H-pyrrolo[3,2-b]pyridin-4-yl]carbonyl}piperidine-1-carboxamide]"
10 to 100 nM,–,"N#Cc1cccc(C(=O)N2CCC[C@@H]3[C@H]2CCN3c2ncnc3[nH]ccc23)c1 [Example 29-31, 3-{[(3aR,7aR)-1-(7H-pyrrolo[2,3-d]pyrimidin-4-yl)octahydro-4H-pyrrolo[3,2-b]pyridin-4-yl]carbonyl}benzonitrile]"
100 to 1000 nM,–,"CCC(=O)N1CCC[C@@H]2[C@H]1CCN2c1ncnc2[nH]ccc12 (single isomer, unassigned) [Example 29-7]"
10 to 100 nM,–,"O=C(Cc1ccc(C(F)(F)F)cc1)N1CCCC2C1CCN2c1ncnc2[nH]ccc12 (stereo not drawn) [Example 29-5, 4-(4-{[4-(trifluoromethyl)phenyl]acetyl}octahydro-1H-pyrrolo[3,2-b]pyridin-1-yl)-7H-pyrrolo[2,3-d]pyrimidine]"
10 to 100 nM,–,"C[C@H](OC(=O)N1CCC[C@@H]2C1CCN2c1ncnc2[nH]ccc12)c1ccccc1 (stereo partly drawn) [Example 8-2, (1S)-1-phenylethyl (3aR,7 aR)-1-(7H-pyrrolo[2,3-d]pyrimidin-4-yl)octahydro-4-pyrrolo[3,2-b]pyridine-4-carboxylate]"
10 to 100 nM,–,"O=S(=O)(c1ccccc1)N1CCC[C@@H]2[C@H]1CCN2c1ncnc2[nH]ccc12 (single isomer, unassigned) [Example 32-6]"
10 to 100 nM,–,"O=C1NCc2ccc(C(=O)N3CCC[C@@H]4[C@H]3CCN4c3ncnc4[nH]ccc34)cc21 [Example 29-62, 6-{[(3aR,7aR)-1-(7H-pyrrolo[2,3-d]pyrimidin-4-yl)octahydro-4H-pyrrolo[3,2-b]pyridin-4-yl]carbonyl}-2,3-dihydro-1H-isoindol-1-one]"
100 to 1000 nM,–,"O=C(c1ccccc1-c1ccccc1)N1CCC[C@@H]2[C@H]1CCN2c1ncnc2[nH]ccc12 [Example 29-23, 4-[(3aR,7aR)-4-(biphenyl-2-ylcarbonyl)octahydro-1H-pyrrolo[3,2-b]pyridin-1-yl]-7H-pyrrolo[2,3-d]pyrimidine]"
10 to 100 nM,–,"CCS(=O)(=O)N1CCC[C@@H]2[C@H]1CCN2c1ncnc2[nH]ccc12 (single isomer, unassigned) [Example 32-3]"
100 to 1000 nM,–,"O=C(c1cc2ccsc2[nH]1)N1CCC[C@@H]2[C@H]1CCN2c1ncnc2[nH]ccc12 [Example 29-48, 4-[(3aR,7aR)-4-(6H-thieno[2,3-b]pyrrol-5-ylcarbonyl)octahydro-1H-pyrrolo[3,2-b]pryidin-1-yl]7H-pyrrolo[2,3-d]pyrimidine]"
100 to 1000 nM,–,"Cn1ccc2cc(C(=O)N3CCC[C@@H]4[C@H]3CCN4c3ncnc4[nH]ccc34)cnc21 [Example 29-50, 4-{(3aR,7aR)-4-[(1-methyl-1H-pyrrolo[2,3-b]pyridin-5-yl)carbonyl]octahydro-1H-pyrrolo[3,2-b]pyridin-1-yl}-7H-pyrrolo[2,3-d]pyrimidine]"
